Earlier results on one molecule are cited in patent US7112576B1, “Compositions and methods for cryopreservation of peripheral blood lymphocytes” (Regents of the University of Minnesota, priority 1999, dated 2006).

The subject of the data set is patients who received cryopreserved autologous cell grafts. The conditions noted are these: attributed to the infusion of DMSO.

For the molecule `C[S+](C)[O-]` [DMSO, dimethylsulfoxide], the “patients exhibiting decreased heart rates” value was 98%, the patients exhibiting dyspnea was 83% and the “patients exhibiting transient hypertension” value is reported as 96%.
